{"source": "patent US4963585A", "about": "“Compound, WF11605 and derivative thereof” (Fujisawa Pharmaceutical Company, Ltd., priority 1988, dated 1990)", "key": {"[1]": {"test_system": "certain yeasts", "assay": "Antimicrobial activity, broth dilution method (summary)", "assay_type": "cell-based", "experimental": "(§1) Antimicrobial activity of WF11605 was determined by broth dilution method in a conventional manner."}, "[2]": {"target": "T1, ^3 H-LTB4 receptor (rabbit PMNLs) (Oryctolagus cuniculus, UniProt G1U4T1)", "T1 construct": "endogenous in cells; host or cells: freeze-thawed polymorphonuclear leukocytes (PMNLs) from peritoneal exudate of rabbit (glycogen-elicited, male Japanese White rabbits)", "T1 sequence (G1U4T1 1-363)": "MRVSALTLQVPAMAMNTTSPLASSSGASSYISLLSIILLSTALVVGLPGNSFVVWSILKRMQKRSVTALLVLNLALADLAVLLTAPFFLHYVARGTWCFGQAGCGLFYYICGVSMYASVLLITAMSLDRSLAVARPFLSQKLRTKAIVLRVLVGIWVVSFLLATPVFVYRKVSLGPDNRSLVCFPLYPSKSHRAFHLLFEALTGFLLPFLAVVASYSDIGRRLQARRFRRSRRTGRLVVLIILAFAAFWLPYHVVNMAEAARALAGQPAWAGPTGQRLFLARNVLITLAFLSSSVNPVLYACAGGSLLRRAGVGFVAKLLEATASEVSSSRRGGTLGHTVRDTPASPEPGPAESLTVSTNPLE", "assay": "Inhibition of binding of ^3 H-LTB4 to freeze-thawed PMNLs (^3 H-LTB4 receptor assay)", "conditions": "4° C., 30 min; for ^3 H-LTB4 specific binding: control 1684 dpm", "experimental": "PMNLs collected from the peritoneal exudate of rabbit were suspended at a concentration of 5×10^6 /ml in Eagle's MEM, stored at -20° C. and used within 2 weeks. On use, the PMNLs were thawed at room temperature and kept at 4° C.\n^3 H-LTB4 ((5,6,8,9,11,14,15 (n)-^3 H)Leukotriene B4, 20 μCi/ml, Amersham Co., Japan) was diluted 20-fold with 3×10^-9M nonradioactive LTB4 in Hanks' balanced salt solution containing 10 mM N-(2-Hydroxyethyl)-piperazine-N'-2-ethanesulfonic acid, pH 7.4 (HBSS-HEPES). Fifteen microlitter of the solution was added to 60 μl HBSS-HEPES at 4° C. and then 25 μl of competitor or corresponding vehicle and 150 μl of freeze-thrawed cells (5×10^6 /ml) were also added, followed by vigorous mixing and allowing to stand for 30 min at 4° C. The resultant mixture was immediately filtered through Whatman GF/C glass filter to separate free and bound ^3 H-LTB4 using cell harvester (BRANDELL M-24R 5/8). The filter paper was quickly washed 5 times by 150 μl of cold HBSS-HEPES, dried, cut off and placed in a scintillation vial. To the vial was added 3 ml of toluene-based scintillation fluid and then the radioactivity was counted. All assay were carried out in duplicate. Specific binding defined as total binding minus non specific binding (with 0.1 μM LTB4), was about 60% of total binding."}, "[3]": {"test_system": "LTB4-induced degranulation in rabbit PMNLs", "assay": "LTB4-induced degranulation (beta-glucuronidase release) of rabbit PMNLs", "assay_type": "cell-based", "conditions": "Oryctolagus cuniculus, PMNL, LTB4 7×10^-8 M, Cytochalasin B 10^-5 M", "experimental": "(§2) PMNLs were collected from the peritoneal exudates of male Japanese White rabbits. At 16 hr after the injection of 0.1% glycogen (400 ml/animal, i.p.), the peritoneal cells were collected and washed with Eagle's minimum essential medium (MEM) and resuspended in the same medium. Over 90% of the cells were judged as PMNLs after Giemsa staining .\n(§3) PMNL suspension (5×10^6 cells/ml) was incubated with test substance or vehicle at 37° C. for 5 min in plastic tubes. Leukotriene B4 (LTB4, 7×10^-8 M, Cayman Chemical Co.,), […] (FMLP, 7×10^-10 M, Sigma) or platelet activating factor (PAF, 7×10^-7 M, Sigma) together with Cytochalasin B (10^-5 M, Sigma) were added and then incubated for 5 min at 37° C. Incubation was terminated by transfer to an ice bath followed by rapid centrifugation. The cell-free supernatants were subsequently assayed for the activity of beta-glucuronidase.\n(§4) The assay mixture consisted of 300 μl of acetate buffer (0.1M, pH 4.6), 100 μl of sample (supernatant obtained above) and 50 μl of methylumbelliferyl-beta-D-glucuronide (1 mM, NAKARAI CHEMICAL Co.,) as substrate. The reaction was started by addition of the substrate and terminated after 15 min at 37° C. by the addition of 2 ml glycine buffer (0.1M, pH 10.32). The fluorescence (excitation; 365 nm, emission; 455 nm) of each sample was determined.\n(§5) The results are expressed as percent of total beta-glucuronidase released where total are the amount of the enzyme in the cells released by 0.1% Triton X-100."}, "[4]": {"test_system": "PAF-induced degranulation in rabbit PMNLs", "assay": "PAF-induced degranulation (beta-glucuronidase release) of rabbit PMNLs", "assay_type": "cell-based", "conditions": "Oryctolagus cuniculus, PMNL; PAF 7×10^-7 M, Cytochalasin B 10^-5 M; read-out: 50% inhibitory concentration (IC50), PAF-induced degranulation", "experimental": "as §2, §3\nas §4, with “The reaction was started by addition of the substrate and terminated after 15 min at 37° C. by the addition of 2 ml glycine buffer (0.1M, pH 10.32).” left out\nas §5"}, "[5]": {"assay": "Acute toxicity, intraperitoneal, mice", "conditions": "mouse, in vivo, ip, female, 4 weeks old", "text": "The WF11605 was intraperitoneally given to mice (female, 4 weeks old). From the test results, LD50 of WF11605 was more than 1 g/kg."}, "[6]": {"test_system": "Cryptococcus albidus AHU-3922", "assay": "Antimicrobial activity, broth dilution method", "assay_type": "cell-based", "conditions": "Naganishia albida, AHU3922; Sabouraud 30° C. 20 hrs", "experimental": "as §1\n(§6) ^1 Sabuoraud 30° C. 20 hrs"}, "[7]": {"test_system": "Torulopsis colliculsa IAM-4426", "assay": "Antimicrobial activity, broth dilution method", "assay_type": "cell-based", "conditions": "Sabouraud 30° C. 20 hrs", "experimental": "as §1, §6"}, "[8]": {"test_system": "Candida krusei OUT-6007", "assay": "Antimicrobial activity, broth dilution method", "assay_type": "cell-based", "conditions": "Pichia kudriavzevii, OUT6007; Sabouraud 30° C. 20 hrs", "experimental": "as §1, §6"}, "[9]": {"test_system": "Candida utilis", "assay": "Antimicrobial activity, broth dilution method", "assay_type": "cell-based", "conditions": "Williopsis jadinii; Sabouraud 30° C. 20 hrs", "experimental": "as §1, §6"}, "[10]": {"test_system": "Candida albicans FP633", "assay": "Antimicrobial activity, broth dilution method", "assay_type": "cell-based", "conditions": "Sabouraud 30° C. 20 hrs", "experimental": "as §1, §6"}, "[11]": {"assay": "Solubility", "assay_type": "physicochemical", "conditions": "free form"}, "[12]": {"test_system": "Mucor rouxianus Wehmer", "assay": "Antimicrobial activity, broth dilution method", "assay_type": "cell-based", "conditions": "Sabouraud 25° C. 40 hrs", "experimental": "as §1\n^2 Sabouraud 25° C. 40 hrs"}, "[13]": {"test_system": "FMLP-induced degranulation in rabbit PMNLs", "assay": "FMLP-induced degranulation (beta-glucuronidase release) of rabbit PMNLs", "assay_type": "cell-based", "conditions": "Oryctolagus cuniculus, PMNL; FMLP 7×10^-10 M, Cytochalasin B 10^-5 M; read-out: 50% inhibitory concentration (IC50), FMLP-induced degranulation", "experimental": "as §2, §3\nas §4, with “The reaction was started by addition of the substrate and terminated after 15 min at 37° C. by the addition of 2 ml glycine buffer (0.1M, pH 10.32).” left out\nas §5"}}, "data": [{"compound": "CC(=O)OC1CC2(C)C3=C(CCC2C(C)(C)C1OC1OC(CO)C(O)C(O)C1O)C1(C)CC(=O)C(C)(C(C)C(C)C)C(C(=O)O)C1(C)CC3", "note": "(stereo not shown) [WF11605]", "values": [{"measurement": "Antimicrobial activity", "setting": "[1]", "result": "has antimicrobial activity against certain yeasts"}, {"measurement": "^3 H-LTB4 specific binding", "setting": "[2]; WF11605 7 × 10^-6 M", "result": 596, "unit": "dpm"}, {"measurement": "inhibition at 7 µM", "setting": "[2]; WF11605 7 × 10^-6 M, read-out: inhibition of 3H-LTB4 specific binding", "result": 64.6, "unit": "%"}, {"measurement": "^3 H-LTB4 specific binding", "setting": "[2]; WF11605 7 × 10^-7 M", "result": 1264, "unit": "dpm"}, {"measurement": "inhibition at 0.7 µM", "setting": "[2]; WF11605 7 × 10^-7 M, read-out: inhibition of 3H-LTB4 specific binding", "result": 24.9, "unit": "%"}, {"measurement": "IC50", "setting": "[3]; read-out: 50% inhibitory concentration (IC50), LTB4-induced degranulation", "result": 3, "unit": "µM"}, {"measurement": "inhibition at 100 µM", "setting": "[3]; WF11605 10^-4 M, read-out: Inhibition of total beta-glucuronidase release", "result": 93.6, "unit": "%"}, {"measurement": "inhibition at 10 µM", "setting": "[3]; WF11605 10^-5 M, read-out: Inhibition of total beta-glucuronidase release", "result": 66.9, "unit": "%"}, {"measurement": "inhibition at 1 µM", "setting": "[3]; WF11605 10^-6 M, read-out: Inhibition of total beta-glucuronidase release", "result": 30.3, "unit": "%"}, {"measurement": "inhibition at 0.1 µM", "setting": "[3]; WF11605 10^-7 M, read-out: Inhibition of total beta-glucuronidase release", "result": 17.5, "unit": "%"}, {"measurement": "inhibition at 0.01 µM", "setting": "[3]; WF11605 10^-8 M, read-out: Inhibition of total beta-glucuronidase release", "result": 12.2, "unit": "%"}, {"measurement": "IC50", "setting": "[4]", "result": "> 100", "unit": "µM"}, {"measurement": "LD50", "setting": "[5]", "result": "> 1000", "unit": "mg/kg"}, {"measurement": "MIC", "setting": "[6]", "result": 100, "unit": "µg/mL"}, {"measurement": "MIC", "setting": "[7]", "result": 50, "unit": "µg/mL"}, {"measurement": "MIC", "setting": "[8]", "result": 25, "unit": "µg/mL"}, {"measurement": "MIC", "setting": "[9]", "result": 50, "unit": "µg/mL"}, {"measurement": "MIC", "setting": "[10]", "result": 25, "unit": "µg/mL"}, {"measurement": "Solubility", "setting": "[11]; H2 O, methanol, ethanol", "result": "sparingly soluble"}, {"measurement": "Solubility", "setting": "[11]; chloroform, ether", "result": "insoluble"}, {"measurement": "MIC", "setting": "[12]", "result": 200, "unit": "µg/mL"}, {"measurement": "IC50", "setting": "[13]", "result": "> 100", "unit": "µM"}]}]}
